For one molecule, IC50 and IC90 results are on record in patent publication US7524840B2, “7,8-disubstituted pyrazolobenzodiazepines” (Hoffmann-La Roche Inc., priority 2004, dated 2009).

One experiment has as its target T1, KDR (Homo sapiens, UniProt P35968).
T1 construct: EEE tag
As to the kind of experiment: KDR kinase HTRF assay. The format is biochemical. As to the method: To determine inhibition of KDR and FGFR, kinase assays were conducted using an HTRF (Homogeneous Time Resolved Fluorescence) assay. This assay is described in A. J. Kolb et. al., Drug Discovery Today, 1998, 3(7), p 333.
Prior to kinase reaction, recombinant EEE-tagged KDR was activated in the presence of activation buffer (50 mM HEPES, pH 7.4, 1 mM DTT, 10% glycerol, 150 mM NaCl, 0.1 mM EDTA, 26 mM MgCl2, and 4 mM ATP). The enzyme was incubated at 4° C. for 1 hour.
Kinase activity assays were performed in 96-well polypropylene plates (Falcon) with a total volume of 90 μL in each well. Each well contained 1 μM KDR substrate (Biotin-[…]), 1 nM activated KDR, and a test compound with one of 8 assay concentrations ranging from […] to […] (1:5 serial dilution). […] The reaction was incubated at 37° C. for 30 minutes. To stop the KDR reaction, 72 μL of reaction mixture was transferred into a STOP plate containing 18 μL of revelation buffer (20 mM EDTA, 50 mM HEPES, pH 7.4, 0.02% BSA, 10 nM Eu-labelled anti-pY antibody (final conc. 2 nM), and 100 nM streptavidin (final conc. 20 nM)). After mixing, 35 μL of solution was transferred into duplicate wells of a 384-well black plate (Costar), and read at 615/665 nm on a Wallac Victor 5 reader.
Compound IC50 values were determined from duplicate sets of data, and calculated by using Excel and fitting data to equation Y=[(a−b)/{1+(X/c)^d]+b, where a and b are enzyme activity in the presence of no test inhibitor compound and an infinite amount of inhibitor test compound, respectively, c is the IC50 and d is the hill constant of the compound response. The IC50 value is the concentration of test compound that reduces by 50% the enzyme activity under the test conditions described.
(TR-FRET usually uses a lanthanide donor and a delayed reading to cut background.)

The next experiment relates to H460a. Description: H460a cell-based MTT proliferation assay. To be noted: 120 h, 5 days post addition of test compound, read-out: Antiproliferative Activity H460a Assay IC90. As to the method:
The H460a cell line was purchased from (ATCC; Rockville, Md.) and was grown in the medium recommended by ATCC. For analysis of the effect of the test compounds on growth of these cells, the cells were plated at 150 cells per well in a 96-well tissue culture plate, and were incubated overnight at 37° C. with 5% CO2. The next day, the test compounds were dissolved in 100% dimethyl sulfoxide (DMSO) to yield a 10 mM stock solution. Each compound was diluted with sterile medium to 1 mM in a sufficient quantity to yield a final concentration of 120 μM. The compounds were then serially diluted in medium with 1.2% DMSO. One-fourth final volume of the diluted compounds was transferred to 96 well plates. Test compounds were assayed in duplicate. […] The plates were returned to the incubator, and 5 days post addition of test compound, were analyzed as described below. […] Absorbencies were read in a microtiter plate reader (Molecular Dynamics) at a wavelength of 570 nm with a 650 nm reference. Percent inhibition was calculated by subtracting the absorbance of the blank (no cell) wells from all wells, then subtracting the division of the average absorbance of each test duplicate by the average of the controls from 1.00. Inhibitory concentrations (IC50) were determined from the linear regression of a plot of the logarithm of the concentration versus the percent inhibition.
(In general: Tetrazolium dyes change colour on reduction, which living cells bring about.)

T1 sequence (P35968 20-1356, species assumed): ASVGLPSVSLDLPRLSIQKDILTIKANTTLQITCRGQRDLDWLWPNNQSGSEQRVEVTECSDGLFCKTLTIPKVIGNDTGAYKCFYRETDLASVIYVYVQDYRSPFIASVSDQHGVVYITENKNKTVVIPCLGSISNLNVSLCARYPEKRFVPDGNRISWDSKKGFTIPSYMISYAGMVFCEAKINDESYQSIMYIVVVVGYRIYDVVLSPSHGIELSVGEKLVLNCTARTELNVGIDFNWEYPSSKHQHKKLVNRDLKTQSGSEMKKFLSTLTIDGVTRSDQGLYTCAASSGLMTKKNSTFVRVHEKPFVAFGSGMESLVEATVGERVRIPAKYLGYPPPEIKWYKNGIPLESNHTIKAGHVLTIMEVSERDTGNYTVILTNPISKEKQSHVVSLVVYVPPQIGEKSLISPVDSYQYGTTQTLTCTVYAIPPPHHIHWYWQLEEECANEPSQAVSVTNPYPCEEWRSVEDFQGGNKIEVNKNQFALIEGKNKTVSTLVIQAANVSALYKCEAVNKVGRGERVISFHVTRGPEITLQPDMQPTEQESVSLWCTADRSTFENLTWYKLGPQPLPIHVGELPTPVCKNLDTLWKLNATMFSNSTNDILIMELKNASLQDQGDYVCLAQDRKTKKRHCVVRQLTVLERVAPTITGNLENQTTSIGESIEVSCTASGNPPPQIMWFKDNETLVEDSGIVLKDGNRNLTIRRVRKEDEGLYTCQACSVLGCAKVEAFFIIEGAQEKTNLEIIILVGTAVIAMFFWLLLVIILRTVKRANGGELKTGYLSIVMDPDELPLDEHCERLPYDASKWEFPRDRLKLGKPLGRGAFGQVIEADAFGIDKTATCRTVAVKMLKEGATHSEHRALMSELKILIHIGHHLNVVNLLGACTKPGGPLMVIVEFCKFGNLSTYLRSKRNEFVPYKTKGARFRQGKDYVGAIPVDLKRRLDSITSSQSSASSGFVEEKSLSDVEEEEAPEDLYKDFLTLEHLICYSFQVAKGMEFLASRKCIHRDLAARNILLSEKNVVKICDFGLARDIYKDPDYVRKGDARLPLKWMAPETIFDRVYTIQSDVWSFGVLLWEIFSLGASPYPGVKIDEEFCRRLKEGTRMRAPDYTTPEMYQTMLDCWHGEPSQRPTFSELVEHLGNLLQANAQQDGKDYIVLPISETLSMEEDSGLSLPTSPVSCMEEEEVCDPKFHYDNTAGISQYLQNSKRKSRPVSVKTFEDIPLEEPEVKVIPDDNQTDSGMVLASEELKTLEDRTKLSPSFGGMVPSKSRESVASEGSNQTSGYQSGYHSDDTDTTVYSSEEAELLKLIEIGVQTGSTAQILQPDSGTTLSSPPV

What is called IC50 is the concentration at which inhibition is half-maximal. Low readings indicate inhibition by little substance, high ones a need for much substance. What is called IC90 is the concentration needed for an effect of 90%. Consider `COc1cc2c(cc1F)C(c1ccccc1Cl)=Nc1c(n[nH]c1C)N2` [IVa, 5-(2-chlorophenyl)-1,2-dihydro-7-fluoro-8-methoxy-3-methyl-pyrazolo[3,4-b][1,4]benzodiazepine], for which half-maximal inhibition at KDR (IC50) required 10 nM. Besides, in the experiment on H460a, the IC90 came to 1570 nM.
